Legend:
Ugt1a1 = experiment: Northern blot of liver Ugt1a1 mRNA after ip dosing; type: in vivo, mice; conditions: mean ± SEM
Method: (§1) Linking efficacy to biochemical parameters and a mechanism was limited in the initial study by only two parameters, [Se] and GPx activity. The in-vivo effects of selenazolidine compounds were then evaluated using, in addition to GPx, glutathione S-transferases (GSTs), quinone oxidoreductases (NQORs), UDP-glucuronosyltransferases (UGTs), and microsomal epoxide hydrolase (mEH). To investigate transcriptional changes of these classes of enzymes, it was necessary to develop a battery of cDNA probes for use in Northern blot analysis of RNA extracted from treated animals (Table 2).
(§2) Whether the selenaproline compounds had the ability to up-regulate the transcription of Phase II and/or other “protective” enzymes was first evaluated following a single dose of each (Table 3). […] The experiment was repeated but with a 7-day treatment regimen (Table 4), the time period for which the compounds were given in the diet before NNK administration in the tumor experiment reported in Table 1. […] With multiple doses, SCA induced Ugt1a9, an mRNA that was not changed with a single dose. […] The elevation in the Gst-mu transcript was unique to multiple OSCA treatment. The elevation of the GST-alpha mRNA was also seen with SCA treatment. Microsomal epoxide hydrolase mRNA was robustly elevated by multiple doses of all three selenaproline compounds, an effect not anticipated from the single dose experiment where not even minor changes were apparent.

Ugt1a6 = experiment: Northern blot of liver Ugt1a6 mRNA after ip dosing; type: in vivo, mice; conditions: mean ± SEM
Method: as §1, §2

Ugt1a9 = experiment: Northern blot of liver Ugt1a9 mRNA after ip dosing; type: in vivo, mice; conditions: 1.25 mg Se/kg, mean ± SEM
Method: as §1, §2

Gst-alpha = experiment: Northern blot of liver Gst-alpha mRNA after ip dosing; type: in vivo, mice; conditions: 1 dose ip, liver RNA 24 hours after dosing, mean ± SEM
Method: as §1, §2

Gst-mu = experiment: Northern blot of liver Gst-mu mRNA after ip dosing; type: in vivo, mice; conditions: mean ± SEM
Method: as §1, §2

mEH = experiment: Northern blot of liver mEH mRNA after ip dosing; type: in vivo, mice; conditions: mean ± SEM
Method: as §1, §2

GPx [1] = experiment: Northern blot of liver GPx mRNA after ip dosing; type: in vivo, mice; conditions: mean ± SEM
Method: as §1, §2

[2] = sALT (hepatotoxicity) after 7 daily ip doses; type: in vivo; parameters: unit not given here; conditions: 7 daily doses ip, 1.25 mg Se/kg, with corn oil; untreated mice 37.5 ± 2.9
Excerpt: Many of the mRNA changes seen with a single dose were not sustained with multiple dosing. Changes in Ugt transcripts after multiple dosing were noticeably absent. Unique to BSCA among the four new compounds investigated was its ability to induce Gst-alpha, Gst-mu and GPx mRNAs. For the Gst-alpha transcripts, which appeared elevated by corn oil, the BSCA increase was much greater than the vehicle alone (8-fold versus 2-fold) and was statistically significant (p<0.05). BSCA shared with PhOHSCA the ability to elevate mEH mRNA.

[3] = Stability in aqueous solution; type: physicochemical; conditions: compared with MSCA; previous studies
Excerpt: Accordingly, additional compounds were synthesized with a range of partition coefficients (Table 6) and evaluated their ability to alter gene transcription following single (Table 7) and multiple (Table 8) doses. The new 2-(R,S)-substituted-4(R)-carboxylic acid derivatives involving 2-butyl, 2-cyclohexyl, 2-phenyl and 2-(2-hydroxyphenyl) were synthesized utilizing the reaction of selenocysteine and the appropriate carboxaldehyde. They were purified by crystallization from ethanol/acetonitrile mixtures and their molecular structures were verified by spectral methods of analysis (′HNMR, ^13CNMR, ESIMs and HRMS).

NNK lung tumor = NNK lung tumor four-month feeding study; type: in vivo; conditions: mice, diet 15 ppm Se from 1 week prior to NNK (10 umol, ip), sacrificed after 16 weeks
Method: (§3) Three novel selenazolidines, 2-methyl-, 2-oxo- and 2-unsubstituted (i.e., selenaproline) selenazolidine-4[R]-carboxylic acid (MSCA, OSCA, and SCA respectively) that had been synthesized as prodrugs of selenocysteine were evaluated for their potential to act as cancer chemopreventive agents. [Se] and GPx activity were evaluated.
(§4) Where indicated, mice (16 g) were given diets fortified with SCA, MSCA or OSCA (15 ppm Se) for 1 week prior to NNK (10 umol, ip). Two other groups received the unmodified AIN-76A diet, with and without NNK administration. All groups were maintained on their pretreatment diet until the animals were sacrificed after 16 weeks. Liver GPx activity is expressed as μmol NADPH oxidized [in regenerating GSH]/min/mg 10,000 g×20 min supernatant protein; RBC activity as μmol/min/mg RBC lysate hemoglobin.

[4] = Body weight gain and liver weight in four-month feeding study; type: in vivo; conditions: mice, diet 15 ppm Se, NNK
Method: as §4

GPx [5] = experiment: Hepatic and RBC (tButylOOH) GPx activity in four-month feeding study; type: in vivo; conditions: mice, diet 15 ppm Se, NNK
Method: as §3, §4

GST = experiment: Hepatic cytosolic GST (CDNB) activity after 7 daily ip doses; type: in vivo, mice; conditions: 7 daily doses ip, hepatic cytosol; naive 5248 ± 503
GPx [6] = experiment: Hepatic cytosolic GPx (H202) activity after 7 daily ip doses; type: in vivo, mice; conditions: 7 daily doses ip, hepatic cytosol; naive 894 ± 36
[7] = 1 dose ip, 1.25 mg Se/kg in corn oil, liver RNA 24 hours after dosing
[8] = 7 daily doses ip, 1.25 mg Se/kg, with corn oil, liver RNA 24 hours after the last dose
[9] = 1 dose ip, 1.25 mg Se/kg, liver RNA 24 hours after dosing
[10] = 7 daily doses ip, 1.25 mg Se/kg, liver RNA 24 hours after the last dose

SMILES: CCCCC1NC(C(=O)O)C[Se]1 (stereo not drawn) [BSCA, 2-n-butyl-SCA]
- Ugt1a1 mRNA (Ugt1a1; [7]): 0.83 ± 0.28 fold change from naive
- Ugt1a1 mRNA (Ugt1a1; [8]): 1.21 ± 0.26 fold change from naive
- Ugt1a6 mRNA (Ugt1a6; [7]): 1.95 ± 0.21 fold change from naive
- Ugt1a6 mRNA (Ugt1a6; [8]): 1.84 ± 0.54 fold change from naive
- Ugt1a9 mRNA (Ugt1a9; 7 daily doses ip, with corn oil, liver RNA 24 hours after the last dose): 1.69 ± 0.35 fold change from naive
- Gst-alpha mRNA (Gst-alpha; 1.25 mg Se/kg in corn oil): 1.39 ± 0.05 fold change from naive
- Gst-mu mRNA (Gst-mu; [7]): 1.58 ± 0.46 fold change from naive
- mEH mRNA (mEH; [7]): 0.69 ± 0.19 fold change from naive
- GPx mRNA (GPx [1]; [7]): 1.58 ± 0.46 fold change from naive
- sALT [2]: 37.1 ± 2.7
- Stability in aqueous solution [3]: much more stable in aqueous solution than MSCA

SMILES: O=C(O)C1C[Se]CN1 (stereo not drawn) [SCA, selenazolidine-4-carboxylic acid]
- NNK Tumors (NNK lung tumor): 6.7 ± 0.8
- Body wt gain (%) [4]: 51.1%
- Liver weight [4]: 1.18 ± 0.02 g
- RBC (tButylOOH) GPx (GPx [5]; RBC): 253 ± 33 μmol/min/mg RBC lysate hemoglobin
- Hepatic (tButylOOH) GPx (GPx [5]; liver): 409 ± 46 μmol NADPH oxidized/min/mg 10,
- Ugt1a1 mRNA (Ugt1a1; [9]): 1.03 ± 0.18 fold change from naive
- Ugt1a1 mRNA (Ugt1a1; [10]): 2.25 ± 0.25 fold change from naive
- Ugt1a6 mRNA (Ugt1a6; [9]): 1.01 ± 0.29 fold change from naive
- Ugt1a6 mRNA (Ugt1a6; [10]): 1.01 ± 0.07 fold change from naive
- Ugt1a9 mRNA (Ugt1a9; 1 dose ip, liver RNA 24 hours after dosing): 1.35 ± 0.50 fold change from naive
- Gst-alpha mRNA (Gst-alpha; 1.25 mg Se/kg): 1.15 ± 0.28 fold change from naive
- Gst-mu mRNA (Gst-mu; [9]): 1.28 ± 0.09 fold change from naive
- Gst-mu mRNA (Gst-mu; [10]): 0.58 ± 0.11 fold change from naive
- mEH mRNA (mEH; [9]): 1.36 ± 0.40 fold change from naive
- mEH mRNA (mEH; [10]): 3.25 ± 1.80 fold change from naive
- GPx (1.5 kb) mRNA (GPx [1]; [9]): 1.12 ± 0.04 fold change from naive
- GPx mRNA (GPx [1]; [10]): 1.55 ± 0.76 fold change from naive
- GST (CDNB) activity (GST): 6576 ± 595 nmol/mg cytosol (100,000 g supernatant) protein/min
- GPx (H202) activity (GPx [6]): 862 ± 81 nmol/mg cytosol (100,000 g supernatant) protein/min

From patent US7425635B2, “Prodrugs and conjugates of thiol- and selenol-containing compounds and methods of use thereof” (University of Utah Research Foundation, priority 1997, dated 2008)
